Test results from patent US6444617B1, “Fused-heterocycle dicarboxylic acid diamide derivatives or salts thereof, herbicide and usage thereof” (Nihon Nohyaku Co., Ltd., priority 1998, dated 2002).

Tests used:
Type in all cases: in vivo
[1] = tested on: cleavers (Galium aparine L.), Ga; assay: Test Example 4: herbicidal effect on upland weeds after emergence; conditions: dosage 5 kg/ha; sprayed after emergence; judged 14 days after treatment
Procedure, shortened: (§1)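 Seeds sown in soil and covered. Plants raised to specified leaf stages. Agent with test compound at a prescribed concentration sprayed. Herbicidal effect and crop damage scored after 14 days as weed-killing rate.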

[2] = tested on: forxtail grass (Alopecurus aequalis var. amurensis Ohwi), Am; assay: as above; conditions: dosage 5 kg/ha; sprayed after emergence; judged 14 days after treatment
Procedure, shortened: as §1

[3] = tested on: cocklebur (Xanthium strumarium L.), Xs; assay: as above; conditions: dosage 5 kg/ha; sprayed after emergence; judged 14 days after treatment
Procedure, shortened: as §1

[4] = tested on: bird's eye speedwell (Veronica persica Poir.), Vp; assay: as above; conditions: dosage 5 kg/ha; sprayed after emergence; judged 14 days after treatment
Procedure, shortened: as §1

[5] = tested on: barnyard grass (Echinochloa crus-galli Beauv.), Ec; assay: as above; conditions: dosage 5 kg/ha; sprayed after emergence; judged 14 days after treatment
Procedure, shortened: as §1

[6] = tested on: velvetleaf (Abutilon theophtasti L.), At; assay: as above; conditions: dosage 5 kg/ha; sprayed after emergence; judged 14 days after treatment
Procedure, shortened: as §1

soybean plant = assay: Test Example 4: phytotoxicity to upland crop plants, treatment after emergence; conditions: dosage 5 kg/ha, sprayed after emergence, judged 14 days after treatment
Procedure, shortened: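 Post-emergence foliar spray at a prescribed concentration, applied once the sown weeds and soybean reached defined leaf stages in soil vats; herbicidal effect and soybean injury scored after 14 days.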

wheat = assay: as above; conditions: dosage 5 kg/ha, sprayed after emergence, judged 14 days after treatment
Procedure, shortened: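 Weeds, soybean and wheat were sown in soil-filled vats, covered with soil and grown to set leaf stages before a post-emergence spray of an agent containing the compound at a prescribed concentration. Weed-killing rate and crop phytotoxicity were assessed 14 days after treatment.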

[7] = tested on: cleavers (Galium aparine L.), Ga; assay: Test Example 3: herbicidal effect on upland weeds before emergence; conditions: dosage 5 kg/ha
Procedure, shortened: (§2)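 Pre-emergence spray of liquid prep, compound at set concentration; read at 14 d post-treatment; weed-kill rate calculated, effect graded.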

[8] = tested on: forxtail grass (Alopecurus aequalis var. amurensis Ohwi), Am; assay: as above; conditions: foxtail grass, dosage 5 kg/ha
Procedure, shortened: as §2

[9] = tested on: cocklebur (Xanthium strumarium L.), Xs; assay: as above; conditions: dosage 5 kg/ha
Procedure, shortened: as §2

[10] = tested on: bird's eye speedwell (Veronica persica Poir.), Vp; assay: as above; conditions: dosage 5 kg/ha
Procedure, shortened: as §2

[11] = tested on: barnyard grass (Echinochloa crus-galli Beauv.), Ec; assay: as above; conditions: dosage 5 kg/ha
Procedure, shortened: as §2

[12] = tested on: velvetleaf (Abutilon theophtasti L.), At; assay: as above; conditions: dosage 5 kg/ha
Procedure, shortened: as §2

[13] = tested on: monochoria (Monochoria vaginalis Presl); assay: Test Example 2: herbicidal effect on paddy field weeds after emergence; conditions: Dosage 5 kg/ha; one-leaved stage; 21 days after treatment
Procedure, shortened: (§3)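 Weeds in flooded paddy-soil pots were grown to the one-leaved stage, then the soil was treated with the compound solution at a set dosage.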

[14] = tested on: bulrush (Scirpus juncoides Roxb.); assay: as above; conditions: Dosage 5 kg/ha; one-leaved stage; 21 days after treatment
Procedure, shortened: as §3

[15] = tested on: barnyard grass (Echinochloa crus-galli Beauv.); assay: as above; conditions: Dosage 5 kg/ha; one-leaved stage; 21 days after treatment
Procedure, shortened: as §3

soybean plant (So) = assay: Test Example 3: phytotoxicity to upland crop plants, treatment before emergence; conditions: dosage 5 kg/ha
Procedure, shortened: (§4)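 Phytotoxicity scores for soybean and wheat were assigned by a set criterion 14 days after a pre-emergence spray of a liquid preparation containing the test compound at a prescribed concentration.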

wheat (Wh) = assay: as above; conditions: dosage 5 kg/ha
Procedure, shortened: as §4

[16] = tested on: bulrush (Scirpus juncoides Roxb.); assay: Test Example 1: herbicidal effect on paddy field weeds before emergence; conditions: Dosage 5 kg/ha
Procedure, shortened: (§5)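 Seeds of both weeds, still ungerminated, in soil pots held under paddy conditions received a set dose of test solution as soil treatment. After twenty-one days, control relative to untreated pots was calculated and rated on a scoring scale.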

[17] = tested on: barnyard grass (Echinochloa crus-galli Beauv.); assay: as above; conditions: Dosage 5 kg/ha
Procedure, shortened: as §5

Row | SMILES | Herbicidal effect Ga [1] | Herbicidal effect Am [2] | Herbicidal effect Xs [3] | Herbicidal effect Vp [4] | Herbicidal effect Ec [5] | Herbicidal effect At [6] | Phytotoxicity So (soybean plant) | Phytotoxicity Wh (wheat) | Herbicidal effect Ga [7] | Herbicidal effect Am [8] | Herbicidal effect Xs [9] | Herbicidal effect Vp [10] | Herbicidal effect Ec [11] | Herbicidal effect At [12] | Post-emergence treatment Monochoria (herbicidal effect) [13] | Post-emergence treatment Bulrush (herbicidal effect) [14] | Post-emergence treatment Barnyard grass (herbicidal effect) [15] | Phytotoxicity So (soybean plant (So)) | Phytotoxicity Wh (wheat (Wh)) | Pre-emergence treatment Bulrush (herbicidal effect) [16] | further results
1 | Cc1c(Cl)cccc1NC(=O)c1cc2c(nc1C(=O)NCC(C)C)SCCC2 [compound 527] | 5 (Weed-killing rate is 100%.) | 5 (Weed-killing rate is 100%.) | 4 (Weed-killing rate is 90-99%.) | 5 (Weed-killing rate is 100%.) | 5 (Weed-killing rate is 100%.) | 5 (Weed-killing rate is 100%.) | 5 (Crop-killing rate is 100%.) | 5 (Crop-killing rate is 100%.) | 5 (Weed-killing rate is 100%.) | 5 (Weed-killing rate is 100%.) | 4 (Weed-killing rate is 90-99%.) | 5 (Weed-killing rate is 100%.) | 5 (Weed-killing rate is 100%.) | 5 (Weed-killing rate is 100%.) | 5 (Weed-killing rate is 100%.) | 5 (Weed-killing rate is 100%.) | 5 (Weed-killing rate is 100%.) | 5 (Crop-killing rate is 100%.) | 5 (Crop-killing rate is 100%.) | 5 (Weed-killing rate is 100%.) | Pre-emergence treatment Barnyard grass (herbicidal effect) [17]: 5 (Weed-killing rate is 100%.)
2 | CCCNC(=O)c1nc2c(cc1C(=O)Nc1c(CC)ccc(Cl)c1CC)CCSC2 [compound 534] | 5 (Weed-killing rate is 100%.) | 5 (Weed-killing rate is 100%.) | 5 (Weed-killing rate is 100%.) | 5 (Weed-killing rate is 100%.) | 5 (Weed-killing rate is 100%.) | 5 (Weed-killing rate is 100%.) | 4 (Crop-killing rate is 90-99%.) | 4 (Crop-killing rate is 90-99%.) | 5 (Weed-killing rate is 100%.) | 5 (Weed-killing rate is 100%.) | 5 (Weed-killing rate is 100%.) | 5 (Weed-killing rate is 100%.) | 5 (Weed-killing rate is 100%.) | 5 (Weed-killing rate is 100%.) | 5 (Weed-killing rate is 100%.) | 5 (Weed-killing rate is 100%.) | 5 (Weed-killing rate is 100%.) | 3 (Crop-killing rate is 70-89%.) | 4 (Crop-killing rate is 90-99%.) | 5 (Weed-killing rate is 100%.) | Pre-emergence treatment Barnyard grass (herbicidal effect) [17]: 5 (Weed-killing rate is 100%.)
3 | CCCNC(=O)c1nc2c(cc1C(=O)Nc1c(CC)ccc(Cl)c1CC)CSCC2 [compound 558] | 5 (Weed-killing rate is 100%.) | 5 (Weed-killing rate is 100%.) | 5 (Weed-killing rate is 100%.) | 5 (Weed-killing rate is 100%.) | 5 (Weed-killing rate is 100%.) | 5 (Weed-killing rate is 100%.) | 5 (Crop-killing rate is 100%.) | 5 (Crop-killing rate is 100%.) | 5 (Weed-killing rate is 100%.) | 5 (Weed-killing rate is 100%.) | 5 (Weed-killing rate is 100%.) | 5 (Weed-killing rate is 100%.) | 5 (Weed-killing rate is 100%.) | 5 (Weed-killing rate is 100%.) | 5 (Weed-killing rate is 100%.) | 5 (Weed-killing rate is 100%.) | 5 (Weed-killing rate is 100%.) | 5 (Crop-killing rate is 100%.) | 5 (Crop-killing rate is 100%.) | 5 (Weed-killing rate is 100%.) | Pre-emergence treatment Barnyard grass (herbicidal effect) [17]: 5 (Weed-killing rate is 100%.)
4 | CCNC(=O)c1nc2occc2cc1C(=O)Nc1c(CC)ccc(Cl)c1CC [compound 774] | 5 (Weed-killing rate is 100%.) | 5 (Weed-killing rate is 100%.) | 5 (Weed-killing rate is 100%.) | 5 (Weed-killing rate is 100%.) | 5 (Weed-killing rate is 100%.) | 5 (Weed-killing rate is 100%.) | 4 (Crop-killing rate is 90-99%.) | 5 (Crop-killing rate is 100%.) | 5 (Weed-killing rate is 100%.) | 5 (Weed-killing rate is 100%.) | 5 (Weed-killing rate is 100%.) | 5 (Weed-killing rate is 100%.) | 5 (Weed-killing rate is 100%.) | 5 (Weed-killing rate is 100%.) | 5 (Weed-killing rate is 100%.) | 5 (Weed-killing rate is 100%.) | 5 (Weed-killing rate is 100%.) | 4 (Crop-killing rate is 90-99%.) | 5 (Crop-killing rate is 100%.) | 5 (Weed-killing rate is 100%.) | Pre-emergence treatment Barnyard grass (herbicidal effect) [17]: 5 (Weed-killing rate is 100%.)
